# Results published in PubChem BioAssay AID330 (DTP/NCI, 2004).
# “And” between values parts separate entries of the source, which are not always exact repeats. Equal entries are not always repeated. Toxic doses and inconclusive results are not listed. Square brackets hold non-standard residues; d marks the D form. Peptide text beside a SMILES is read from it. * marks the point of attachment. ξ: configuration not given here. ξF = NC(Cc1ccccc1)C(=O)O; Cbz = O=C(OCc1ccccc1)*; Sar = CNCC(=O)O
# System: P388 leukemia ip, CD2F1 mice, survival T/C
# Assay: NCI In Vivo Anticancer Drug Screen. Data for tumor model P388 Leukemia (intraperitoneal) in CD2F1 (CDF1) mice
# Details: endpoint: median survival time, higher = longer survival
# Outline: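 Mice carrying the transplanted tumor received test compound or vehicle. Survival was recorded in each group, and the value is the treated-group measurement divided by that of the vehicle-treated control group.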
# [1] = dose: 25.0 mg/kg/injection, schedule: Q01DX009 (ip), vehicle: saline with Tween-80
# [2] = dose: 50.0 mg/kg/injection, schedule: Q01DX009 (ip), vehicle: saline with Tween-80
# [3] = dose: 50.0 mg/kg/injection, schedule: Q04DX003 (ip), vehicle: saline with Tween-80
# [4] = dose: 100.0 mg/kg/injection, schedule: Q01DX009 (ip), vehicle: saline with Tween-80
# [5] = dose: 100.0 mg/kg/injection, schedule: Q04DX003 (ip), vehicle: saline with Tween-80
# [6] = dose: 50.0 mg/kg/injection, schedule: Q01DX005 (ip), vehicle: saline with Tween-80
# [7] = dose: 100.0 mg/kg/injection, schedule: Q01DX005 (ip), vehicle: saline with Tween-80
# [8] = dose: 200.0 mg/kg/injection, schedule: Q01DX005 (ip), vehicle: saline with Tween-80
# [9] = dose: 200.0 mg/kg/injection, schedule: Q01DX009 (ip), vehicle: saline with Tween-80
# [10] = dose: 60.0 mg/kg/injection, schedule: Q01DX005 (ip), vehicle: saline with Tween-80
# [11] = dose: 120.0 mg/kg/injection, schedule: Q01DX005 (ip), vehicle: saline with Tween-80
# [12] = dose: 240.0 mg/kg/injection, schedule: Q01DX005 (ip), vehicle: saline with Tween-80
# [13] = dose: 100.0 mg/kg/injection, schedule: Q01DX009 (ip), vehicle: saline
# [14] = dose: 200.0 mg/kg/injection, schedule: Q01DX009 (ip), vehicle: saline
# [15] = dose: 60.0 mg/kg/injection, schedule: Q01DX005 (ip), vehicle: Klucel (hydroxypropylcellulose) (HPC)
# [16] = dose: 120.0 mg/kg/injection, schedule: Q01DX005 (ip), vehicle: Klucel (hydroxypropylcellulose) (HPC)
# [17] = dose: 240.0 mg/kg/injection, schedule: Q01DX005 (ip), vehicle: Klucel (hydroxypropylcellulose) (HPC)
# [18] = dose: 50.0 mg/kg/injection, schedule: Q01DX009 (ip), vehicle: Klucel (hydroxypropylcellulose) (HPC)
# [19] = dose: 100.0 mg/kg/injection, schedule: Q01DX009 (ip), vehicle: Klucel (hydroxypropylcellulose) (HPC)
# [20] = dose: 200.0 mg/kg/injection, schedule: Q01DX009 (ip), vehicle: Klucel (hydroxypropylcellulose) (HPC)
smiles,measurement,setting,value
CC1(C)N=C(N)N=C(N)N1c1ccc(OCC(=O)Nc2ccccc2)c(Cl)c1,T/C,[1],100 % of control
same,T/C,"dose: 25.0 mg/kg/injection, schedule: Q04DX003 (ip), vehicle: saline with Tween-80",100 % of control
same,T/C,[2],104 % of control
same,T/C,[3],100 % of control
same,T/C,[4],109 % of control
same,T/C,[5],113 % of control
NCCNCC[OH2+].NCCNCC[OH2+].O=[N+]([O-])[O-].[Ni+2],T/C,"dose: 12.5 mg/kg/injection, schedule: Q01DX009 (ip), vehicle: saline",93 % of control
same,T/C,"dose: 25.0 mg/kg/injection, schedule: Q01DX009 (ip), vehicle: saline",102 % of control
Cc1cnc(=O)[nH]c1NO,T/C,"dose: 100.0 mg/kg/injection, schedule: Q04DX002 (ip), vehicle: Klucel (hydroxypropylcellulose) (HPC)",102 % of control
same,T/C,"dose: 200.0 mg/kg/injection, schedule: Q04DX002 (ip), vehicle: Klucel (hydroxypropylcellulose) (HPC)",100 % of control
same,T/C,"dose: 400.0 mg/kg/injection, schedule: Q04DX002 (ip), vehicle: Klucel (hydroxypropylcellulose) (HPC)",98 % of control
COC(=O)c1ccc(C)c(NS(=O)(=O)c2ccc3c(c2)c(=O)sn3C)c1,T/C,[6],102 % of control
same,T/C,[7],110 % of control
same,T/C,[8],112 % of control
O=C(CON1C(=O)CCC1=O)c1ccccc1,T/C,[2],106 % of control
same,T/C,[4],112 % of control
same,T/C,[9],112 % of control
CC(C)c1ccc(/C=C/c2ccc(N(C)C)cc2)cc1,T/C,"dose: 50.0 mg/kg/injection, schedule: Q01DX009 (sc), vehicle: olive oil, sesame oil, peanut oil",100 % of control
same,T/C,"dose: 100.0 mg/kg/injection, schedule: Q01DX009 (sc), vehicle: olive oil, sesame oil, peanut oil",100 % of control
same,T/C,"dose: 200.0 mg/kg/injection, schedule: Q01DX009 (sc), vehicle: olive oil, sesame oil, peanut oil",97 % of control
COc1ccc(/C=C/C(=O)C(CN(C)C)CN(C)C)cc1,T/C,"dose: 1.56 mg/kg/injection, schedule: Q01DX005 (ip), vehicle: saline",109 % of control
same,T/C,"dose: 3.12 mg/kg/injection, schedule: Q01DX005 (ip), vehicle: saline",96 % of control
same,T/C,"dose: 6.25 mg/kg/injection, schedule: Q01DX005 (ip), vehicle: saline",106 % of control
O=[N+]([O-])c1ccccc1NC1CCN(CCCC2(c3ccc(F)cc3)OCCO2)CC1,T/C,[10],97 % of control
same,T/C,[11],101 % of control
same,T/C,[12],99 % of control
O=C1C2C3C=CC(C2C(=O)N1CN1CCSCC1)C1C2C(=O)N(CN4CCSCC4)C(=O)C2C31 (configuration not stated),T/C,[1],99 % of control
same,T/C,[2],116 % of control and 121 % of control
same,T/C,[4],165 % of control
same,T/C,[9],166 % of control and 194 % of control
CC(C)(N)COC(=O)c1ccccc1C(=O)O,T/C,"dose: 100.0 mg/kg/injection, schedule: Q01DX001 (ip), vehicle: saline",90 % of control
same,T/C,"dose: 200.0 mg/kg/injection, schedule: Q01DX001 (ip), vehicle: saline",95 % of control
same,T/C,"dose: 400.0 mg/kg/injection, schedule: Q01DX001 (ip), vehicle: saline",104 % of control
O=C(CCCl)Oc1ccc(Br)cc1,T/C,"dose: 100.0 mg/kg/injection, schedule: Q01DX009 (ip), vehicle: saline sonified",111 % of control
same,T/C,"dose: 200.0 mg/kg/injection, schedule: Q01DX009 (ip), vehicle: saline sonified",100 % of control
same,T/C,"dose: 400.0 mg/kg/injection, schedule: Q01DX009 (ip), vehicle: saline sonified",94 % of control
CCCN1C(=O)CC(c2ccc(OC)c(OC)c2)C1=O (configuration not stated),T/C,[10],90 % of control
same,T/C,[11],90 % of control
same,T/C,[12],90 % of control
Oc1ccc(SCc2ccc(NCc3ccccc3)cc2)cc1,T/C,[2],113 % of control and 117 % of control
same,T/C,[4],119 % of control
O=C1C(C(=NCCCN2CCOCC2)c2ccccc2)=C(O)c2ccccc21,T/C,"dose: 25.0 mg/kg/injection, schedule: Q04DX002 (ip), vehicle: saline with Tween-80",102 % of control
same,T/C,"dose: 50.0 mg/kg/injection, schedule: Q04DX002 (ip), vehicle: saline with Tween-80",101 % of control
same,T/C,"dose: 100.0 mg/kg/injection, schedule: Q04DX002 (ip), vehicle: saline with Tween-80",109 % of control
O=c1c2cccc3cccc(c32)c2nc3ccccc3n12,T/C,"dose: 4.12 mg/kg/injection, schedule: Q01DX009 (ip), vehicle: saline with Tween-80",108 % of control
same,T/C,"dose: 6.25 mg/kg/injection, schedule: Q01DX009 (ip), vehicle: saline with Tween-80",100 % of control
same,T/C,[1],95 % of control
CCOCC(=O)O,T/C,"dose: 50.0 mg/kg/injection, schedule: Q01DX009 (ip), vehicle: saline",95 % of control
same,T/C,[13],92 % of control
same,T/C,[14],91 % of control
Cc1cccc2c(SCCCCCCSc3c4ccccc4nc4c(C)cccc34)c3ccccc3nc12,T/C,[15],90 % of control
same,T/C,[16],92 % of control
same,T/C,[17],91 % of control
c1ccc2c(CN3CCCCC3)c[nH]c2c1,T/C,[3],100 % of control
same,T/C,[5],90 % of control
CC(=O)Nc1ccc(NC(=O)Nc2c(Cl)cccc2Cl)cc1,T/C,[18],100 % of control
same,T/C,[19],98 % of control
same,T/C,[20],91 % of control
COC(=O)c1ccc(SCCC(=O)CSc2ccc(C(=O)OC)cc2)cc1,T/C,[18],98 % of control
same,T/C,[19],94 % of control
same,T/C,[20],94 % of control
COc1ccc(C(O)OC2CC3C=CC2C3)cc1 (configuration not stated),T/C,"dose: 12.5 mg/kg/injection, schedule: Q01DX009 (ip), vehicle: other",114 % of control
same,T/C,"dose: 25.0 mg/kg/injection, schedule: Q01DX009 (ip), vehicle: other",110 % of control
same,T/C,"dose: 50.0 mg/kg/injection, schedule: Q01DX009 (ip), vehicle: other",114 % of control
same,T/C,"dose: 100.0 mg/kg/injection, schedule: Q01DX009 (ip), vehicle: other",114 % of control
same,T/C,"dose: 200.0 mg/kg/injection, schedule: Q01DX009 (ip), vehicle: other",111 % of control
CC(CCC(=O)O)(c1ccc(OC(=O)Nc2ccccc2Cl)cc1)c1ccc(OC(=O)Nc2ccccc2Cl)cc1,T/C,[6],118 % of control
same,T/C,[7],102 % of control
same,T/C,[8],109 % of control
CN(N=O)c1ccc(N=Nc2ccccc2)cc1,T/C,[15],98 % of control
same,T/C,[16],95 % of control
same,T/C,[17],86 % of control
COC(=O)[C@@H]1O[C@H]2OC=C[C@H]21,T/C,"dose: 12.5 mg/kg/injection, schedule: Q01DX005 (ip), vehicle: saline",112 % of control
same,T/C,"dose: 25.0 mg/kg/injection, schedule: Q01DX005 (ip), vehicle: saline",108 % of control
same,T/C,"dose: 50.0 mg/kg/injection, schedule: Q01DX005 (ip), vehicle: saline",99 % of control and 100 % of control
COP(=O)(CC(=O)CCCCC1OCCO1)OC,T/C,"dose: 60.0 mg/kg/injection, schedule: Q01DX005 (ip), vehicle: saline",110 % of control
same,T/C,"dose: 120.0 mg/kg/injection, schedule: Q01DX005 (ip), vehicle: saline",105 % of control
same,T/C,"dose: 240.0 mg/kg/injection, schedule: Q01DX005 (ip), vehicle: saline",100 % of control
CC1S(=O)(=O)OCCOS1(=O)=O,T/C,"dose: 12.5 mg/kg/injection, schedule: Q01DX005 (ip), vehicle: Klucel (hydroxypropylcellulose) (HPC)",162 % of control
same,T/C,"dose: 25.0 mg/kg/injection, schedule: Q01DX005 (ip), vehicle: Klucel (hydroxypropylcellulose) (HPC)",175 % of control and 275 % of control
same,T/C,"dose: 50.0 mg/kg/injection, schedule: Q01DX005 (ip), vehicle: Klucel (hydroxypropylcellulose) (HPC)",165 % of control and 288 % of control
CN(CC(=O)NC(Cc1ccccc1)C(=O)O)C(=O)OCc1ccccc1 (configuration not stated) (Cbz-[Sar]-[ξF]-OH),T/C,[6],105 % of control
same,T/C,[7],102 % of control
same,T/C,[8],100 % of control
CC(C)CC([N+](C)(C)C)P(=O)([O-])O (configuration not stated),T/C,[13],100 % of control
same,T/C,[14],95 % of control
same,T/C,"dose: 400.0 mg/kg/injection, schedule: Q01DX009 (ip), vehicle: saline",100 % of control
